Among the data in patent US11247972B2, “Compositions and methods for treating toxoplasmosis, cryptosporidiosis, and other apicomplexan protozoan related diseases” (University of Washington through its Center for …, priority 2010, dated 2022) are inhibition values, retold here.

The term inhibition denotes the change of the read-out against control, counted positive when it falls.

The target in one test is PfCDPK1 (Plasmodium falciparum (isolate 3D7), UniProt P62344). The test can be described thus: biochemical. Conditions: read-out: PfCDPK1 (% inhibition @ 3 uM).
The target in a further test is PfCDPK4 (Plasmodium falciparum (isolate 3D7), UniProt Q8IBS5). Put plainly: biochemical. The conditions noted are these: read-out: PfCDPK4 (% inhibition @ 3 uM).

Regarding `CC(C)COc1ccc2cc(-c3nn(CC4CCNCC4)c4ncnc(N)c34)ccc2c1` [Compound 44, 3-(6-isobutoxynaphthalen-2-yl)-1-(piperidin-4-ylmethyl)-1H-pyrazolo[3,4-d]pyrimidin-4-amine], the inhibition at 3 µM on PfCDPK1 came to 100%; at PfCDPK4, 97%.

Take `Nc1ncnc2c1c(-c1ccc(Cl)cc1)nn2CC1CCNCC1` [Compound 45, 3-(4-chlorophenyl)-1-(piperidin-4-ylmethyl)-1H-pyrazolo[3,4-d]pyrimidin-4-amine]: the results for the inhibition at 3 µM on PfCDPK1 and at PfCDPK4 were 101% and 82%, respectively.

As for `CC(C)n1nc(-c2ccc3cc(OCc4ccccc4Cl)ccc3c2)c2c(N)ncnc21` [Compound 46, 3-(6-(2-chlorobenzyloxy)naphthalen-2-yl)-1-isopropyl-1H-pyrazolo[3,4-d]pyrimidin-4-amine], the figures for the inhibition at 3 µM at PfCDPK1 and at PfCDPK4 were 95% and 52%, respectively.

`CC(C)n1nc(-c2ccc3cc(OCc4cccc(Cl)c4)ccc3c2)c2c(N)ncnc21` [Compound 47, 3-(6-(3-chlorobenzyloxy)naphthalen-2-yl)-1-isopropyl-1H-pyrazolo[3,4-d]pyrimidin-4-amine]: the inhibition at 3 µM on PfCDPK1 worked out at 91%; at PfCDPK4, 51%.

In the case of `Cc1ccc(C)c(COc2ccc3cc(-c4nn(C(C)C)c5ncnc(N)c45)ccc3c2)c1` [Compound 48, 3-(6-(2,5-dimethylbenzyloxy)naphthalen-2-yl)-1-isopropyl-1H-pyrazolo[3,4-d]pyrimidin-4-amine], the inhibition at 3 µM on PfCDPK1 was determined as 84%; at PfCDPK4, 10%.

`Cc1ccccc1COc1ccc2cc(-c3nn(C(C)C)c4ncnc(N)c34)ccc2c1` [Compound 49, 1-isopropyl-3-(6-(2-methylbenzyloxy)naphthalen-2-yl)-1H-pyrazolo[3,4-d]pyrimidin-4-amine]: the inhibition at 3 µM on PfCDPK1 was 88%; on PfCDPK4, 22%.

On to `Cc1ccc(C(F)(F)F)cc1COc1ccc2cc(-c3nn(C(C)C)c4ncnc(N)c34)ccc2c1` [Compound 50, 1-isopropyl-3-(6-(2-methyl-5-(trifluoromethyl)benzyloxy)naphthalen-2-yl)-1H-pyrazolo[3,4-d]pyrimidin-4-amine], for which the results for the inhibition at 3 µM at PfCDPK1 and at PfCDPK4 were 83% and 26%, respectively.

As for `CC(C)n1nc(-c2ccc3cc(OCc4ccc(CC(F)(F)F)c(Cl)c4)ccc3c2)c2c(N)ncnc21` [Compound 51, 3-(6-(3-chloro-4-(2,2,2-trifluoroethyl)benzyloxy)naphthalen-2-yl)-1-isopropyl-1H-pyrazolo[3,4-d]pyrimidin-4-amine], the inhibition at 3 µM at PfCDPK1 was 86%; on PfCDPK4, 92%.

As to `CC(C)n1nc(-c2ccc3cc(OCc4cc(F)cc(Cl)c4)ccc3c2)c2c(N)ncnc21` [Compound 52, 3-(6-(3-chloro-5-fluorobenzyloxy)naphthalen-2-yl)-1-isopropyl-1H-pyrazolo[3,4-d]pyrimidin-4-amine], the values for the inhibition at 3 µM at PfCDPK1 and on PfCDPK4 were 93% and 62%, respectively.

Turning to `CC(Oc1ccc2cc(-c3nn(C(C)C)c4ncnc(N)c34)ccc2c1)c1ccccc1` (stereo not shown) [Compound 53, 1-isopropyl-3-(6-(1-phenylethoxy)naphthalen-2-yl)-1H-pyrazolo[3,4-d]pyrimidin-4-amine], the inhibition at 3 µM on PfCDPK1 is 98%; at PfCDPK4 it was 57%.

With `CC(C)n1nc(-c2ccc3cc(OCc4ccc(C(C)(C)C)cc4)ccc3c2)c2c(N)ncnc21` [Compound 54, 3-(6-(4-tert-butylbenzyloxy)naphthalen-2-yl)-1-isopropyl-1H-pyrazolo[3,4-d]pyrimidin-4-amine], the inhibition at 3 µM on PfCDPK1 came out at 101%; on PfCDPK4 it was 77%.

On to `CC(C)n1nc(-c2ccc3cc(OCc4ccncc4)ccc3c2)c2c(N)ncnc21` [Compound 55, 1-isopropyl-3-(6-(pyridin-4-ylmethoxy)naphthalen-2-yl)-1H-pyrazolo[3,4-d]pyrimidin-4-amine], for which the figures for the inhibition at 3 µM at PfCDPK1 and on PfCDPK4 were 100% and 94%, respectively.

Turning to `CC(C)n1nc(-c2ccc3cc(OCc4ccc(Cl)cc4)ccc3c2)c2c(N)ncnc21` [Compound 56, 3-(6-(4-chlorobenzyloxy)naphthalen-2-yl)-1-isopropyl-1H-pyrazolo[3,4-d]pyrimidin-4-amine], the inhibition at 3 µM at PfCDPK1 amounted to 93%; on PfCDPK4, 73%.

For `Cn1ccc2cc(-c3nn(CC4CCNCC4)c4ncnc(N)c34)ccc21` [Compound 57, 3-(1-methyl-1H-indol-5-yl)-1-(piperidin-4-ylmethyl)-1H-pyrazolo[3,4-d]pyrimidin-4-amine], the inhibition at 3 µM at PfCDPK1 amounted to 85%; at PfCDPK4 it was 82%.

`CC(C)(C)n1nc(-c2ccc(NC(=O)CCl)cc2)c2c(N)ncnc21` [Compound 58, N-(4-(4-amino-1-tert-butyl-1H-pyrazolo[3,4-d]pyrimidin-3-yl)phenyl)-2-chloroacetamide]: the inhibition at 3 µM was 97% on PfCDPK1 and 50% on PfCDPK4.

Turning to `CC(C)C(=O)Nc1ccc(-c2nn(C(C)(C)C)c3ncnc(N)c23)cc1` [Compound 59, N-(4-(4-amino-1-tert-butyl-1H-pyrazolo[3,4-d]pyrimidin-3-yl)phenyl)isobutyramide], the inhibition at 3 µM was determined as 98% on PfCDPK1 and 79% on PfCDPK4.

Take `CC(C)(C)C(=O)Nc1ccc(-c2nn(C(C)(C)C)c3ncnc(N)c23)cc1` [Compound 60, N-(4-(4-amino-1-tert-butyl-1H-pyrazolo[3,4-d]pyrimidin-3-yl)phenyl)pivalamide]: the values for the inhibition at 3 µM on PfCDPK1 and on PfCDPK4 were 98% and 85%, respectively.

Turning to `CCCC(=O)Nc1ccc(-c2nn(C(C)(C)C)c3ncnc(N)c23)cc1` [Compound 61, N-(4-(4-amino-1-tert-butyl-1H-pyrazolo[3,4-d]pyrimidin-3-yl)phenyl)butyramide], the values for the inhibition at 3 µM on PfCDPK1 and on PfCDPK4 were 101% and 80%, respectively.

`CC(C)CC(=O)Nc1ccc(-c2nn(C(C)(C)C)c3ncnc(N)c23)cc1` [Compound 62, N-(4-(4-amino-1-tert-butyl-1H-pyrazolo[3,4-d]pyrimidin-3-yl)phenyl)-3-methylbutanamide]: the values for the inhibition at 3 µM on PfCDPK1 and on PfCDPK4 were 102% and 95%, respectively.

`CC(C)(C)n1nc(-c2ccc(NC(=O)C3CCCC3)cc2)c2c(N)ncnc21` [Compound 63, N-(4-(4-amino-1-tert-butyl-1H-pyrazolo[3,4-d]pyrimidin-3-yl)phenyl)cyclopentanecarboxamide]: the results for the inhibition at 3 µM on PfCDPK1 and at PfCDPK4 were 103% and 96%, respectively.

As for `CC(C)(C)n1nc(-c2ccc(NC(=O)C3CCCCC3)cc2)c2c(N)ncnc21` [Compound 64, N-(4-(4-amino-1-tert-butyl-1H-pyrazolo[3,4-d]pyrimidin-3-yl)phenyl)cyclohexanecarboxamide], the inhibition at 3 µM at PfCDPK1 came out at 101%; on PfCDPK4, 66%.

For the compound `CC(C)(C)n1nc(-c2ccc(NC(=O)c3ccccc3)cc2)c2c(N)ncnc21` [Compound 65, N-(4-(4-amino-1-tert-butyl-1H-pyrazolo[3,4-d]pyrimidin-3-yl)phenyl)benzamide], the inhibition at 3 µM at PfCDPK1 stood at 101%; at PfCDPK4, 53%.

For the compound `CC(C)(C)n1nc(-c2ccc(NC(=O)Cc3ccccc3)cc2)c2c(N)ncnc21` [Compound 66, N-(4-(4-amino-1-tert-butyl-1H-pyrazolo[3,4-d]pyrimidin-3-yl)phenyl)-2-phenylacetamide], the inhibition at 3 µM on PfCDPK1 came out at 100%; on PfCDPK4, 77%.

With `CCC(=O)Nc1ccc(-c2nn(C(C)(C)C)c3ncnc(N)c23)cc1` [Compound 67, N-(4-(4-amino-1-tert-butyl-1H-pyrazolo[3,4-d]pyrimidin-3-yl)phenyl)propionamide], the inhibition at 3 µM at PfCDPK1 stood at 96%; at PfCDPK4 it was 49%.

On to `CCOc1ccc2cc(-c3nc(C(C)(C)C)n4ccnc(N)c34)ccc2c1` [Compound 69, 3-tert-butyl-1-(6-ethoxynaphthalen-2-yl)imidazo[1,5-a]pyrazin-8-amine], for which the inhibition at 3 µM on PfCDPK1 is 101%; on PfCDPK4 it was 97%.

As to `Cn1ccc2cc(-c3nc(C(C)(C)C)n4ccnc(N)c34)ccc21` [Compound 70, 3-tert-butyl-1-(1-methyl-1H-indol-5-yl)imidazo[1,5-a]pyrazin-8-amine], the inhibition at 3 µM on PfCDPK1 worked out at 100%; on PfCDPK4, 96%.

`COc1ccc2cc(-c3nc(C(C)(C)C)n4ccnc(N)c34)ccc2c1` [Compound 71, 3-tert-butyl-1-(6-methoxynaphthalen-2-yl)imidazo[1,5-a]pyrazin-8-amine]: the results for the inhibition at 3 µM at PfCDPK1 and on PfCDPK4 were 101% and 98%, respectively.

For the compound `CC(C)(C)c1nc(-c2cnc3ccccc3c2)c2c(N)nccn12` [Compound 72, 3-tert-butyl-1-(quinolin-3-yl)imidazo[1,5-a]pyrazin-8-amine], the inhibition at 3 µM on PfCDPK1 stood at 94%; on PfCDPK4, 91%.

With `Nc1ncnc2c1c(-c1ccc(-c3ccccc3)c(F)c1)nn2CC1CCNCC1` [Compound 73, 3-(2-fluorobiphenyl-4-yl)-1-(piperidin-4-ylmethyl)-1H-pyrazolo[3,4-d]pyrimidin-4-amine], the inhibition at 3 µM at PfCDPK1 was determined as 87%; on PfCDPK4 it was 14%.

With `N#Cc1cccc(-c2ccc(-c3nn(CC4CCNCC4)c4ncnc(N)c34)cc2)c1` [Compound 74, 4′-(4-amino-1-(piperidin-4-ylmethyl)-1H-pyrazolo[3,4-d]pyrimidin-3-yl)biphenyl-3-carbonitrile], the inhibition at 3 µM at PfCDPK1 is 97%; at PfCDPK4, 68%.

Turning to `Cc1ccc(S(=O)(=O)Nc2ccc(-c3nn(-c4ccccc4)c4ncnc(N)c34)cc2)cc1` [Compound 75, N-(4-(4-amino-1-phenyl-1H-pyrazolo[3,4-d]pyrimidin-3-yl)phenyl)-4-methylbenzenesulfonamide], the figures for the inhibition at 3 µM at PfCDPK1 and at PfCDPK4 were 75% and 5%, respectively.

For the compound `COC(=O)Nc1nc2ccc(C(O)c3ccccc3)cc2[nH]1` (stereo not shown) [Compound 82], the inhibition at 3 µM came out at 56% at PfCDPK1 and 4% on PfCDPK4.
